Series [1] concerns A549 (human lung carcinoma). Kind of series: Cytotoxicity against A549 cell line. In kind it is cell-based. Particulars: Homo sapiens; A549 cells. On the procedure: (§1) Thioesters 7–9 were assayed against A549, MCF7 and WI38 cell lines, in addition to recombinant human rHDAC1 (class I) and recombinant human HDAC6 (rHDAC6, class II) as previously reported. Psammaplin A (3), prereduced psammaplin A thiol (4), and SAHA (1) were included as control compounds. IC50^6/1 is defined by the ratio IC50^HDAC6/IC50^HDAC1 and was used as an indicator of isoform selectivity in vitro.

Series [2] concerns MCF7 (human breast carcinoma). Kind of series: Cytotoxicity against MCF7 cell line. In kind it is cell-based. Particulars: MCF7 cells. As for the experimental part:
as §1

The subject of series [3] is WI38 (normal human lung fibroblast). The series can be described thus: Cytotoxicity against WI38 cell line. In kind it is cell-based. Particulars: Homo sapiens, WI-38; WI38 cells. On the procedure:
as §1

Another series has as its target T1, rHDAC1 (Homo sapiens, UniProt Q13547).
T1 construct: purchased BPS Bioscience (US)
Kind of series: rHDAC1 inhibition, coupled Boc-Lys(Ac)-AMC/trypsin fluorescence assay. In kind it is biochemical. On the procedure: (§2) HDAC assays were performed as previously reported. The recombinant human histone deacetylases rHDAC1 and rHDAC6 were obtained from BPS Bioscience (US).
(§3) All reactions were performed in black half area 96-well microplates (Greiner bio-one, Germany) according to the general procedure described by Wegener et al. with some minor modifications. […] The buffer components were purchased from Merck (Germany), Roth (Germany) and Sigma-Aldrich.
(§4) The enzyme reaction was initiated by the addition of Boc-Lys(Ac)-AMC substrate. The reaction mixture was incubated at 30 °C in the dark and stopped after 60 min by the addition of a mixture of 70 µM trypsin and 200 nM SAHA. The fluorescence of AMC served as an indirect measure of HDAC enzyme activity. The kinetics of AMC release was measured on a PolarStar fluorescence plate reader (BMG) with an excitation wavelength of 340 nm and an emission wavelength of 460 nm. Complete cleavage of deacetylated Boc-Lys-AMC by trypsin was achieved after about 10–15 min. The fluorescence intensity of the plateau was averaged over at least 5 min and normalized with respect to the percentage of enzyme activity. Finally, the normalized fluorescence intensities were plotted versus the concentration of test compounds and fitted to a four-parameter logistic model to calculate the IC50 values.

The target of series [4] is T2, recombinant human HDAC6 (rHDAC6) (Homo sapiens, UniProt Q9UBN7).
T2 construct: purchased BPS Bioscience (US)
T2 sequence (Q9UBN7 1-1215): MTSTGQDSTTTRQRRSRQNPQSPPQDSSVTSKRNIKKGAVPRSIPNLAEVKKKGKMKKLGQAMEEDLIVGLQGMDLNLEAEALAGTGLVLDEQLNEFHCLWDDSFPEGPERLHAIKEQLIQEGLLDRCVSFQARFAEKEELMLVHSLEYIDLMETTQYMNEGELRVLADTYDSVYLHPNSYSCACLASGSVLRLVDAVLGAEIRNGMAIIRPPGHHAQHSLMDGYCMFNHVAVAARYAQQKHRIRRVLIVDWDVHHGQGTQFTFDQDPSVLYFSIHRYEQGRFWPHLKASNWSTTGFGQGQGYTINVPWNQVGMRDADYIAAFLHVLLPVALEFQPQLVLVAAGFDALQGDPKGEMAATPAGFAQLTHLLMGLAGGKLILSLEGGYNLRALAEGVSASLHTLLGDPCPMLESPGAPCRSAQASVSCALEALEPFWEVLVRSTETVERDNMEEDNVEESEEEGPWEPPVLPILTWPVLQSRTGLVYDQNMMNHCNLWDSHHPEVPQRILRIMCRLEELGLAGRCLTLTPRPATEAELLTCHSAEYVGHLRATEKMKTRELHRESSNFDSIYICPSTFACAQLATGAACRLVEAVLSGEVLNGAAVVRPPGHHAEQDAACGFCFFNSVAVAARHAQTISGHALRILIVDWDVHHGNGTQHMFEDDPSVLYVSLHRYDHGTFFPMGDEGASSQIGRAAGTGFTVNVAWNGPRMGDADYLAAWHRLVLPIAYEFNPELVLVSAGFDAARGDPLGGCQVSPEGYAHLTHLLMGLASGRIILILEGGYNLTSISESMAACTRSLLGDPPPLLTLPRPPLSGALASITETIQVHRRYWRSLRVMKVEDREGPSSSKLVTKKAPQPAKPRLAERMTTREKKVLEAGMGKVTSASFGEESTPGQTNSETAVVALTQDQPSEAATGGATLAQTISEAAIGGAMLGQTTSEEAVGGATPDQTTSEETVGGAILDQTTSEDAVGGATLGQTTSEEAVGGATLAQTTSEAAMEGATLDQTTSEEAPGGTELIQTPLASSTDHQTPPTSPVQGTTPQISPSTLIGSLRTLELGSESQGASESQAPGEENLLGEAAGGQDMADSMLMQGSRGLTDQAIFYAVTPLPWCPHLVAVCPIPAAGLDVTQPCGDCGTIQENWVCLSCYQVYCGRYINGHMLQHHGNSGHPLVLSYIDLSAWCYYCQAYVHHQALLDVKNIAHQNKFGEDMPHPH
The series can be described thus: rHDAC6 inhibition, coupled Boc-Lys(Ac)-AMC/trypsin fluorescence assay. In kind it is biochemical. Particulars: purified recombinant human HDAC6. On the procedure: as §2, §3, §4

The nature of series [5]: Thioester hydrolysis in assay buffer, thiol detection with fluorescent coumarin probe 10. In kind it is physicochemical. Particulars: incubation with probe 10 in buffer FB-188, up to 100 minutes. From the text: We therefore undertook preliminary studies to attempt to shed light on the reasons for the high potency of our thioesters in the enzymatic assays. We first envisaged that our assay buffer could potentially be responsible for thioester hydrolysis. We prepared and used synthetic probe 10 [30] (Scheme 3) in order to test this hypothesis. Coumarin-based probe 10 is known to react extremely fast with thiols through a Michael addition reaction. While the fluorescence of 10 is efficiently quenched by the intramolecular double bond, upon reaction with thiols, a highly fluorescent conjugate 11 is produced.
[formula] […] Bottom left: Fluorescence intensity at 465 nm (Y-axis, A.U.) as a function of the number of equivalents of 2-mercaptoethanol added (X-axis). Bottom right: Fluorescence intensity at 465 nm (Y-axis, A.U.) as a function of the incubation time (X-axis, minutes) of probe 10 with thioester 8.
Control experiments were performed using 2-mercaptoethanol as the thiol source. Fluorescence spectra of 10 (10^−6 M 10 in buffer FB-188 [31]) were recorded after incubation with 0, 0.2, 0.4, 0.6, 0.8, 1.0 and 1.5 equiv 2-mercaptoethanol (Scheme 3, bottom left). As expected, a linear relationship between fluorescence intensity and the concentration of thiol could be observed between 0 and 1.0 equiv, confirming the sensitivity and reliability of this system at low concentration. […]

The structures appear in SMILES notation.

T1 sequence (Q13547 whole entry): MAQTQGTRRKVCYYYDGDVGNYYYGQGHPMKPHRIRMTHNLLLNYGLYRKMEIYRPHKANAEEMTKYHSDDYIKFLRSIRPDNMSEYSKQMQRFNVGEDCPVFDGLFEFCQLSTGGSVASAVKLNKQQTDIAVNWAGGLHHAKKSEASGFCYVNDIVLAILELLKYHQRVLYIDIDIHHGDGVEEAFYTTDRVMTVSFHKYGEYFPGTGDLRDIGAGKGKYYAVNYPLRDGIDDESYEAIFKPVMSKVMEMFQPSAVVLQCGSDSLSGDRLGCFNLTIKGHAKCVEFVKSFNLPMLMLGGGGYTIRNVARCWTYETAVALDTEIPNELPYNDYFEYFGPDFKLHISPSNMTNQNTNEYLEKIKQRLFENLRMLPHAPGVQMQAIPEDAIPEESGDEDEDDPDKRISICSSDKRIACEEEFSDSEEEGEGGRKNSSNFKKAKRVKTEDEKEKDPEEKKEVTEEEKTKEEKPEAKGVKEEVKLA

As for `COc1ccc(C/C(=N\O)C(=O)NCCSC(C)=O)cc1Br` [Compound 8, (E)-(S)-2-(3-(3-Bromo-4-methoxyphenyl)-2-(hydroxyimino)propanamido)ethyl ethanethioate], the IC50 (in general, the concentration that gives 50% inhibition) in series [1] was found to be 8.3 µM; in series [2], 3.2 µM; in series [3], 5.2 µM; on rHDAC1 (purified recombinant human HDAC1) it was 0.005 µM; in series [4], 23 µM. The “IC50^6/1 (ratio IC50 HDAC6/IC50 HDAC1)” value on rHDAC1 (isoform selectivity in vitro) is given as 4560. For the same molecule, the “times less potent than the corresponding free thiol analogue against rHDAC1” value at rHDAC1 (thioester vs free thiol) worked out at 2.5 times. For the same molecule, the “thiol formation (thioester hydrolysis) in assay buffer” value in series [5] is recorded as “no evidence of thiol formation”.

For the origin of these results see article PMC3566764, “Thioester derivatives of the natural product psammaplin A as potent histone deacetylase inhibitors” (Beilstein Journal of Organic Chemistry, 2013).
